In patent US11524968B2, “Heterocyclic compound as a protein kinase inhibitor” (HK inno.N Corporation, priority 2017, dated 2022) one finds IC50 data, which are given here for 34 compounds.

What is called IC50 is the concentration that inhibits the measured activity by half.

Molecules are shown by their SMILES.

In this assay the target is JAK1 (Homo sapiens (Human), UniProt P23458). Nature of the assay: Analysis of JAK1 activity inhibition ability (ADP-Glo Kinase Assay). The format is biochemical. The note with it: JAK1 enzyme, ADP-Glo luminescence, ATP 250 uM, IRS-itide substrate, 30° C. 40 minutes; read-out: IC50. An outline of the steps: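 ADP-Glo luminescence read-out of ADP production, with IC50 taken as the concentration halving JAK1 activity relative to control. Enzyme was incubated 40 min at 30 °C with compound, IRS-itide (40 ng/mL) and ATP (250 uM), concentrations as prepared in pH 7.5 Tris-HCl/MgCl2/BSA/DTT buffer.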
(In general: ADP-Glo turns the ADP formed in a reaction into a luminescent signal.)

Sequence of JAK1 (P23458 whole entry): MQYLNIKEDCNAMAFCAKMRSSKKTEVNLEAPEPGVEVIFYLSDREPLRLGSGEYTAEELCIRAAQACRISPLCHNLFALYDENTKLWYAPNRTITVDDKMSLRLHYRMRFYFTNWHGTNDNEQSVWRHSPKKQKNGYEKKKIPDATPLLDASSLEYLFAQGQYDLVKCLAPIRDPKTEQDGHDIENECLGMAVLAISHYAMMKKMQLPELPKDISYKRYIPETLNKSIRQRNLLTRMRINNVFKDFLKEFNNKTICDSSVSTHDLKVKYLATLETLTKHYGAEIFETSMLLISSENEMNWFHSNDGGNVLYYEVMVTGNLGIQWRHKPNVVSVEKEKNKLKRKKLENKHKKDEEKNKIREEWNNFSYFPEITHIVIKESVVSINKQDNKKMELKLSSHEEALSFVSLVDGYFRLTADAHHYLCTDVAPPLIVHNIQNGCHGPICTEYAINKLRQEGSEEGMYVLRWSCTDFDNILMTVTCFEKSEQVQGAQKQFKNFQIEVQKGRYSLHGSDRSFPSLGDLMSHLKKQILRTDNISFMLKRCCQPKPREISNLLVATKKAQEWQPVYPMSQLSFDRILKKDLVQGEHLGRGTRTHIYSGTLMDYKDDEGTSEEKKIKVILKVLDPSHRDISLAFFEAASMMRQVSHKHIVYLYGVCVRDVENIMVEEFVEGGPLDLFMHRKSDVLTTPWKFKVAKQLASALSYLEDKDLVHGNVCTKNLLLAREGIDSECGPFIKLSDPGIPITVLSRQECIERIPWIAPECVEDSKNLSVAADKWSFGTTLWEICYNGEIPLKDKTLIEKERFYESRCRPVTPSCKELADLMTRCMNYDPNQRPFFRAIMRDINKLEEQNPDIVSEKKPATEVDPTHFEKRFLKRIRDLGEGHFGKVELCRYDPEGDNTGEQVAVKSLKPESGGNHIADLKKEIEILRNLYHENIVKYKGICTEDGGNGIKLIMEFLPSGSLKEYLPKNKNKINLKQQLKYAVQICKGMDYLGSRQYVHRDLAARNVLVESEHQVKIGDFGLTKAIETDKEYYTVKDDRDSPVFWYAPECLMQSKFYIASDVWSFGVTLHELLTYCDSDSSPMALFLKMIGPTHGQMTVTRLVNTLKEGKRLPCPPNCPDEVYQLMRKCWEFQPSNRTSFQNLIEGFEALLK

In the case of `CCC1CN(C(=O)OC(C)(C)C)CC=C1c1cc(NC(=O)C2CC2)nc2[nH]ccc12` (stereo not shown) [Example 458, tert-butyl 4-(6-(cyclopropanecarboxamido)-1H-pyrrolo[2,3-b]pyridin-4-yl)-3-ethyl-3,6-dihydropyridine-1 (2H)-carboxylate], the IC50 was more than 200 nM.

Turning to `CC(C)(C)OC(=O)N1C=C(c2cc(NC(=O)C3CC3)nc3[nH]ccc23)CCC1` [Example 459, tert-butyl 5-(6-(cyclopropanecarboxamido)-1H-pyrrolo[2,3-b]pyridin-4-yl)-3,4-dihydropyridine-1 (2H)-carboxylate], the IC50 was more than 200 nM. To `CC(C)(C)OC(=O)N1CCC=C(c2cc(NC(=O)C3CC3)nc3[nH]ccc23)C1` [Example 460, tert-butyl 5-(6-(cyclopropanecarboxamido)-1H-pyrrolo[2,3-b]pyridin-4-yl)-3,6-dihydropyridine-1 (2H)-carboxylate] belongs more than 200 nM.

For `CC(C)(C)OC(=O)N1CC=C(c2cc(NC(=O)C3CC3)nc3[nH]ccc23)C1` [Example 461, tert-butyl 3-(6-(cyclopropanecarboxamido)-1H-pyrrolo[2,3-b]pyridin-4-yl)-2,5-dihydro-1H-pyrrole-1-carboxylate], the IC50 is more than 200 nM. Consider `CCNC(=S)Nc1ccc(-c2cc(NC(=O)C3CC3)nc3[nH]ccc23)cc1` [Example 462, N-(4-(4-(3-ethylthioureido)phenyl)-1H-pyrrolo[2,3-b]pyridin-6-yl)cyclopropanecarboxamide], for which the IC50 lay within 20 to 200 nM. For the compound `CCCCNC(=S)Nc1ccc(-c2cc(NC(=O)C3CC3)nc3[nH]ccc23)cc1` [Example 463, N-(4-(4-(3-butylthioureido)phenyl)-1H-pyrrolo[2,3-b]pyridin-6-yl)cyclopropanecarboxamide], the IC50 is more than 200 nM. Regarding `O=C(Nc1nc(-c2ccc(NC(=S)NC3CCCCC3)cc2)c2cc[nH]c2n1)C1CC1` [Example 464, N-(4-(4-(3-cyclohexylthioureido)phenyl)-7H-pyrrolo[2,3-d]pyrimidin-2-yl)cyclopropanecarboxamide], the IC50 was more than 200 nM. Regarding `CCCCNC(=S)Nc1ccc(-c2nc(NC(=O)C3CC3)nc3[nH]ccc23)cc1` [Example 465, N-(4-(4-(3-butylthioureido)phenyl)-7H-pyrrolo[2,3-d]pyrimidin-2-yl)cyclopropanecarboxamide], the IC50 fell in the range of 20 to 200 nM.

`CCNC(=S)Nc1ccc(-c2nc(NC(=O)C3CC3)nc3[nH]ccc23)cc1` [Example 466, N-(4-(4-(3-ethylthioureido)phenyl)-7H-pyrrolo[2,3-d]pyrimidin-2-yl)cyclopropanecarboxamide]: the IC50 lay within 20 to 200 nM. Then `CCCNC(=S)Nc1ccc(-c2nc(NC(=O)C3CC3)nc3[nH]ccc23)cc1` [Example 467, N-(4-(4-(3-propylthioureido)phenyl)-7H-pyrrolo[2,3-d]pyrimidin-2-yl)cyclopropanecarboxamide], with 20 to 200 nM.

For `CCNC(=S)N1CC=C(c2cc(NC(=O)C3CC3)nc3[nH]ccc23)CC1` [Example 468, N-(4-(1-(ethylcarbamothioyl)-1,2,3,6-tetrahydropyridin-4-yl)-1H-pyrrolo[2,3-b]pyridin-6-yl)cyclopropanecarboxamide], the IC50 lay in the range of 20 to 200 nM. Regarding `CCNC(=S)N1C2C=C(c3cc(NC(=O)C4CC4)nc4[nH]ccc34)CC1CC2` (stereo not shown) [Example 469, N-(4-(8-(ethylcarbamothioyl)-8-azabicyclo[3.2.1]oct-2-en-3-yl)-1H-pyrrolo[2,3-b]pyridin-6-yl)cyclopropanecarboxamide], the IC50 is less than 20 nM. As for `O=C(Nc1cc(-c2ccc(NCC3CC3)cc2)c2cc[nH]c2n1)C1CC1` [Example 470, N-(4-(4-((cyclopropylmethyl)amino)phenyl)-1H-pyrrolo[2,3-b]pyridin-6-yl)cyclopropanecarboxamide], the IC50 lay in the range of 20 to 200 nM.

On to `O=C(Nc1cc(-c2ccc(NCC3CCCCC3)cc2)c2cc[nH]c2n1)C1CC1` [Example 471, N-(4-(4-((cyclohexylmethyl)amino)phenyl)-1H-pyrrolo[2,3-b]pyridin-6-yl)cyclopropanecarboxamide], for which the IC50 was more than 200 nM. For the compound `O=C(Nc1cc(-c2ccc(NCc3ccccc3)cc2)c2cc[nH]c2n1)C1CC1` [Example 472, N-(4-(4-(benzylamino)phenyl)-1H-pyrrolo[2,3-b]pyridin-6-yl)cyclopropanecarboxamide], the IC50 was more than 200 nM. To `O=C(Nc1nc(-c2ccc(NCc3ccc(F)cc3)cc2)c2cc[nH]c2n1)C1CC1` [Example 473, N-(4-(4-((4-fluorobenzyl)amino)phenyl)-7H-pyrrolo[2,3-d]pyrimidin-2-yl)cyclopropanecarboxamide] belongs less than 20 nM; to `O=C(Nc1nc(-c2ccc(NCc3cccc(F)c3)cc2)c2cc[nH]c2n1)C1CC1` [Example 474, N-(4-(4-((3-fluorobenzyl)amino)phenyl)-7H-pyrrolo[2,3-d]pyrimidin-2-yl)cyclopropanecarboxamide], less than 20 nM; to `O=C(Nc1nc(-c2ccc(NCc3ccc(Cl)cc3)cc2)c2cc[nH]c2n1)C1CC1` [Example 475, N-(4-(4-((4-chlorobenzyl)amino)phenyl)-7H-pyrrolo[2,3-d]pyrimidin-2-yl)cyclopropanecarboxamide], less than 20 nM. For the compound `O=C(Nc1nc(-c2ccc(NCCCO)cc2)c2cc[nH]c2n1)C1CC1` [Example 476, N-(4-(4-((3-hydroxypropyl)amino)phenyl)-7H-pyrrolo[2,3-d]pyrimidin-2-yl)cyclopropanecarboxamide], the IC50 is more than 200 nM. As for `N#CCCn1cc(-c2cc(NC(=O)C3CC3)nc3[nH]ccc23)cn1` [Example 477, N-(4-(1-(2-cyanoethyl)-1H-pyrazol-4-yl)-1H-pyrrolo[2,3-b]pyridin-6-yl)cyclopropanecarboxamide], the IC50 was less than 20 nM. With `O=C(Nc1cc(-c2cnn(CC3CC3)c2)c2cc[nH]c2n1)C1CC1` [Example 478, N-(4-(1-(cyclopropylmethyl)-1H-pyrazol-4-yl)-1H-pyrrolo[2,3-b]pyridin-6-yl)cyclopropanecarboxamide], the IC50 is less than 20 nM. Take `O=C(Nc1cc(-c2cnn(Cc3ccccc3)c2)c2cc[nH]c2n1)C1CC1` [Example 479, N-(4-(1-benzyl-1H-pyrazol-4-yl)-1H-pyrrolo[2,3-b]pyridin-6-yl)cyclopropanecarboxamide]: the IC50 fell in the range of 20 to 200 nM. In the case of `Cc1nn(CCC#N)c(C)c1-c1cc(NC(=O)C2CC2)nc2[nH]ccc12` [Example 480, N-(4-(1-(2-cyanoethyl)-3,5-dimethyl-1H-pyrazol-4-yl)-1H-pyrrolo[2,3-b]pyridin-6-yl)cyclopropanecarboxamide], the IC50 lay within 20 to 200 nM. To `O=C(Nc1cc(-c2cn(Cc3ccccc3)nn2)c2cc[nH]c2n1)C1CC1` [Example 481, N-(4-(1-benzyl-1H-1,2,3-triazol-4-yl)-1H-pyrrolo[2,3-b]pyridin-6-yl)cyclopropanecarboxamide] belongs 20 to 200 nM; to `N#Cc1ccc(Cn2cc(-c3nc(NC(=O)C4CC4)nc4[nH]ccc34)cn2)cn1` [Example 482, N-(4-(1-((6-cyanopyridin-3-yl)methyl)-1H-pyrazol-4-yl)-7H-pyrrolo[2,3-d]pyrimidin-2-yl)cyclopropanecarboxamide], more than 200 nM. With `N#CCCn1ccc(-c2cc(NC(=O)C3CC3)nc3[nH]ccc23)c1` [Example 483, N-(4-(1-(2-cyanoethyl)-1H-pyrrol-3-yl)-1H-pyrrolo[2,3-b]pyridin-6-yl)cyclopropanecarboxamide], the IC50 was less than 20 nM. To `O=C(Nc1cc(C2=CCN(CCN3CCOCC3)C2)c2cc[nH]c2n1)C1CC1` [Example 484, N-(4-(1-(2-morpholinoethyl)-2,5-dihydro-1H-pyrrol-3-yl)-1H-pyrrolo[2,3-b]pyridin-6-yl)cyclopropanecarboxamide] belongs more than 200 nM. With `N#CCCN1CC=C(c2cc(NC(=O)C3CC3)nc3[nH]ccc23)C1` [Example 485, N-(4-(1-(2-cyanoethyl)-2,5-dihydro-1H-pyrrol-3-yl)-1H-pyrrolo[2,3-b]pyridin-6-yl)cyclopropanecarboxamide], the concentration for half-maximal inhibition (IC50) lay in the range of 20 to 200 nM. For the compound `N#CCCN1CC=C(c2cc(NC(=O)C3CC3)nc3[nH]ccc23)CC1` [Example 486, N-(4-(1-(2-cyanoethyl)-1,2,3,6-tetrahydropyridin-4-yl)-1H-pyrrolo[2,3-b]pyridin-6-yl)cyclopropanecarboxamide], the IC50 is 20 to 200 nM. For the compound `CC1(CN2CC=C(c3cc(NC(=O)C4CC4)nc4[nH]ccc34)CC2)COC1` [Example 487, N-(4-(1-((3-methyloxetan-3-yl)methyl)-1,2,3,6-tetrahydropyridin-4-yl)-1H-pyrrolo[2,3-b]pyridin-6-yl)cyclopropanecarboxamide], the IC50 was more than 200 nM.

`O=C(Nc1cc(C2=CCN(Cc3ccns3)CC2)c2cc[nH]c2n1)C1CC1` [Example 488, N-(4-(1-(isothiazol-5-ylmethyl)-1,2,3,6-tetrahydropyridin-4-yl)-1H-pyrrolo[2,3-b]pyridin-6-yl)cyclopropanecarboxamide]: the IC50 is less than 20 nM. For the compound `O=C(Nc1cc(C2=CCN(CC3CC3(F)F)CC2)c2cc[nH]c2n1)C1CC1` (stereo not shown) [Example 489, N-(4-(1-((2,2-difluorocyclopropyl)methyl)-1,2,3,6-tetrahydropyridin-4-yl)-1H-pyrrolo[2,3-b]pyridin-6-yl)cyclopropanecarboxamide], the IC50 was in the range of 20 to 200 nM.

As for `N#CC1CC(N2CC=C(c3cc(NC(=O)C4CC4)nc4[nH]ccc34)CC2)C1` (stereo not shown) [Example 490, N-(4-(1-(3-cyanocyclobutyl)-1,2,3,6-tetrahydropyridin-4-yl)-1H-pyrrolo[2,3-b]pyridin-6-yl)cyclopropanecarboxamide], the IC50 fell in the range of 20 to 200 nM.

Turning to `O=C(Nc1cc(C2=CCC(NC3CCN(C(=O)c4cc(F)cc(F)c4)CC3)CC2)c2cc[nH]c2n1)C1CC1` (stereo not shown) [Example 491, N-(4-(4-((1-(3,5-difluorobenzoyl)piperidin-4-yl)amino)cyclohex-1-en-1-yl)-1H-pyrrolo[2,3-b]pyridin-6-yl)cyclopropanecarboxamide], the concentration for half-maximal inhibition (IC50) was more than 200 nM.
